Key:
Assay type in all cases: in vivo, mouse
C57BL/6 wild type mice [1] = test: Tissue apoptosis (TUNEL) in irradiated hindlimb muscle and bone marrow; settings: morpholino 48 hours before 25 Gy, 24 hours post-radiation
Procedure: FIG. 17. Therapeutic suppression of CD47 prevents radiation-induced apoptosis in muscle and bone marrow. The presence of apoptosis was detected by the TUNEL method as brown nuclear staining. Non-irradiated control hindlimbs (upper panels) and hindlimbs irradiated for a total of 25 Gy all from age and sex matched C57BL/6 wild type mice were prepared for paraffin-embedded tissue sections 24 hours post-radiation and were examined for the presence of apoptotic nuclei. Mice hindlimbs injected with the CD47 morpholino (bottom panels) 48 hours prior to radiation were also prepared in the same manner 24 hours post-radiation. Apoptosis is inferred by intranuclear staining of muscle and bone marrow cells. Images were acquired using a 20× objective.
Tissue apoptosis: The ApopTag in situ detection kit (Chemicon, Millipore, Mass.) was employed following the manufacturer's recommendations In brief, sections undergo deparaffinization, rehydration and washing, followed by treatment with 20 μg/ml of proteinase K for 15 minutes at room temperature and repeat washing. Endogenous peroxidase activity was quenched with 3% H2O2 in PBS for 5 minutes. The 3′-hydroxy DNA strand breaks were enzymatically labeled with digoxygenin nucleotide via TdT and incubated for 1 hour at 37° C., and the reaction terminated with a stop buffer. […]

C57BL/6 mice = test: Laser Doppler hind limb blood flow after NO challenge, 8 weeks post-radiation; settings: intramuscular 10 μM 48 hours before 25 Gy, 8 weeks post-injury
Procedure: FIG. 18. Targeting CD47 Protects Composite Tissue From Radiation-Induced Vascular Damage. Age matched male C57BL/6 mice received 25 Gy to both hind limbs. Forty-eight hours prior to irradiation the right hind limb was treated by direct intra-muscular injection with the CD47 morpholino (750 μl at 10 μM concentration). The opposite (control) limb received nothing. Eight weeks post-radiation hind limb blood flow changes to a nitric oxide (NO) challenge (DEA/NO 100 nmol/g body weight via rectal instillation) was assessed via Laser Doppler imaging (FIG. 18A). In other experiments, the opposite (control) limb received injection of either missense oligonucleotide or sterile PBS with similar results (not shown). Laser Doppler was performed under 1.5% isoflurane inhalation anesthesia with animal core temperature held constant at 36.5° C. […]
Laser Doppler analysis: Hind limb flow was measured using laser Doppler imaging (MoorLD1-2λ, Moor Instruments, Devon, England). […] Core temperature was monitored by rectal probe and was further controlled with a heat lamp. […] After equilibration to the experimental set-up baseline, hind limb blood flow was measured. […] Results are expressed as the change percent control from baseline of the ROI.
Laser Doppler Analysis: Hind limb blood flow was measured using laser Doppler imaging as described above. […]

C57BL/6 wild type mice [2] = test: Hindlimb irradiation (25 Gy), skin reaction / tissue necrosis grading and histology; settings: for skin reaction / tissue damage of irradiated hindlimb: 10 μM in 750 μl PBS local-regional
Procedure: FIG. 16. CD47 suppression using an antisense morpholino minimizes tissue damage from radiation injury. Age and sex matched C57BL16 wild type mice underwent a one-time treatment of the right hindlimb with either a murine specific CD47 morpholino oligonucleotide (10 μM in 750 μl PBS) or 750 μl of PBS injected local-regionally to the muscle and soft tissues. […] At the end of 8 weeks, there was a considerable amount of alopecia, dry desquamation and early signs of fibrotic contractures within the irradiated hind limbs of mice receiving only PBS. […] The tissue necrosis grading scores for 8 animals are presented as mean±SD (FIG. 16B) and show a similar trend throughout the 8-week observation period.
Skin reaction: Skin reaction following hind limb irradiation was quantified every week following treatment for 8 weeks using a previously described grading system (Flanders et al., Am J Pathol 163:2247-2257, 2003). The grading system consisted of 5 categories: normal, hair loss, erythema, dry desquamation and moist desquamation/ulceration.
Irradiation of mice: Age and sex matched wild type mice underwent local irradiation to the right hindlimb as described in Example 1. Forty-eight hours prior to irradiation, animals received the CD47 morpholino (SEQ ID NO: 4), a control morpholino (SEQ ID NO: 5) (both at 10 μM in […] PBS via intramuscular injection), vehicle, or no treatment to the hind limb. Under 1% isoflurane inhalation anesthesia, the animals were placed in customized Lucite jigs that allow for immobilization and selective irradiation of the right hindlimb. A single radiation dose of 25 Gy was delivered by a Therapax® DXT300 X-ray irradiator (Pantak, Inc., East Haven, Conn.) using 2.0-mm A1 filtration (300 kVp) at a dose rate of 2.53 Gy/min. Care was taken to avoid irradiation of other body parts by using lead shields specifically designed as a part of the jigs. After irradiation, the animals were placed in cages as indicated above and observed weekly. Skin reaction after hind limb irradiation was quantified every week after treatment for 8 weeks using a previously described grading system (Flanders et al., Am J. Pathol 163:2247-2257, 2003). Briefly, tissue necrosis grading system consists of 5 categories: normal, hair loss, erythema, dry desquamation, and moist desquamation/ulceration.
Age and sex matched C57BL16 wild type mice underwent a one-time treatment of the right hindlimb with the CD47 antisense morpholino oligonucleotide (10 μM in 750 μl PBS), a mismatched control morpholino, or vehicle (PBS) injected local-regionally to the muscle and soft tissues.

Sequence: CGTCACAGGCAGGACCCACTGCCCA (all phosphorodiamidate morpholino (PMO)) [CD47 morpholino, CD47 targeting morpholino oligonucleotide]
- apoptosis (TUNEL) in bone marrow (C57BL/6 wild type mice [1]): tissue protection extended to the bone marrow compartment
- apoptosis (TUNEL) in skeletal muscle (C57BL/6 wild type mice [1]): minimum cell death (apoptosis)
- vascular perfusion in response to DEA/NO challenge (laser Doppler) (C57BL/6 mice): enhanced vascular perfusion
- skin reaction / tissue damage of irradiated hindlimb (C57BL/6 wild type mice [2]; 48 hours before 25 Gy, 8 weeks): little to no alopecia, ulceration, or desquamation
- skin reaction / tissue damage of irradiated hindlimb (C57BL/6 wild type mice [2]; 48 hours before 25 Gy, 8 weeks, listed as CD47 targeting morpholino): minimal to no alopecia, ulceration, and desquamation
- H&E of treated hindlimb skeletal muscle (C57BL/6 wild type mice [2]; 25 Gy, results not shown): muscle cell survival and hypertrophy
- hindlimb contracture due to fibrosis (C57BL/6 wild type mice [2]; 48 hours before 25 Gy, 8 weeks): minimal contracture due to fibrosis

Reference: US8951527B2, “Radioprotectants targeting thrombospondin-1 and CD47” (The United States of America, as represented by the …, priority 2008, dated 2015)
